Article PMC4520593, “Virtual Screening of Peptide and Peptidomimetic Fragments Targeted to Inhibit Bacterial Dithiol Oxidase DsbA” (PLoS ONE, 2015)

What was measured:
Oxidized EcDsbA = biological target: T1, Oxidized EcDsbA (Escherichia coli, UniProt P0AEG4); assay: Isothermal titration calorimetry of compounds into EcDsbA; assay type: binding; details: 25°C
T1 construct: made in house
Method: Oxidized EcDsbA was diluted to 50 μM in 25 mM HEPES pH 7.4, 50 mM NaCl and 5% DMSO. Compounds were dissolved in 100% DMSO, and then diluted to a final concentration of 2 mM into 25 mM HEPES pH 7.4 50 mM NaCl with a final DMSO concentration of 5%. All experiments were performed using the MicroCal Auto-ITC200 instrument (GE Healthcare, USA), loading 200 μL of EcDsbA in the sample cell and 40 μL of compound in the syringe. Titrations were set up at 25°C with 19 injections of 2 μL separated by 180 seconds and a constant stirring speed of 1000 rpm. A preliminary injection of 0.5 μL was added to avoid slow leakage of titrant into the sample cell before the first 2 μL injection and the corresponding data point was excluded from analysis. Every compound was tested with three technical replicates. An additional titration of compound into buffer only (25 mM HEPES pH 7.4, 50 mM NaCl and 5% DMSO) was performed to measure the background heat of dilution. Analysis was performed with the MicroCal Origin software (version 7.0552).

PmDsbA = biological target: PmDsbA; parameters: method as in PMID 24831013; details: ITC; cited from earlier work

T1 sequence (P0AEG4 20-208): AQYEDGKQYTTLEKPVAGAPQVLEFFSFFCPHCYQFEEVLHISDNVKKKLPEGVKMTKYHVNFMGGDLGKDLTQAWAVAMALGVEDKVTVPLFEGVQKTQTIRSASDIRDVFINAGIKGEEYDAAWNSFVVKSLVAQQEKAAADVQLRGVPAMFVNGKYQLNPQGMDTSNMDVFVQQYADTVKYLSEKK

Compound | ITC binding to EcDsbA (Oxidized EcDsbA; 50 μM EcDsbA, 2 mM compound in syringe, 5% DMSO) | release of energy for the highest peak (ITC) (Oxidized EcDsbA; titration of EcDsbA) [µcal/s] | Kd (PmDsbA) [µM] | ΔH (PmDsbA) [kcal/mol] | ΔS (PmDsbA) [cal.mol^-1.deg^-1]
O=C(NCc1ccccc1)[C@H](Cc1c[nH]c2ccccc12)NC(=O)N1CCOCC1 [Compound 1, (S)-2-[N-(Morpholine-1-carbonyl)amino]-3-(1H-indol-3-yl)-N-(benzyl)propanamide] | little evidence of binding | -0.60 |  |  | 
PWATCDS |  |  | 8.3 ± 0.4 | -13.7 ± 0.3 | -22.3±1.1
